# According to patent US8455440B2, “Combination anticoagulant therapy with a compound that acts as a factor Xa inhibitor” (Millennium Pharmaceuticals, Inc., priority 2007, dated 2013):
# Positions of bridges follow the written chain, without caps; N, C: chain ends. Non-standard residues stand in square brackets, D forms with d. Residues, ends and D or L forms follow the SMILES beside them. hArg = N=C(N)NCCCC[C@H](N)C(=O)O; Mpa = O=C(O)CCS
# Columns and labels:
# [1] = system: ferric chloride induced thrombosis in rat carotid artery; assay: Ferric chloride induced thrombosis in rat carotid artery; type: in vivo
# [2] = system: ADP induced platelet aggregation; assay: Ex vivo platelet aggregation induced by 10 μM ADP; type: in vivo; settings: Rattus norvegicus, po, 72 h, clopidogrel 1 mg/kg, dosed orally for three days, read-out: inhibition of ADP induced platelet aggregation in platelet rich plasma
# Protocol: (§1) In this experiment, the ability of Compound A to maintain vessel patency under arterial flow conditions in ferric chloride induced thrombosis in rat carotid artery is compared to that achieved by clopidogrel. Compound A was administered by intravenous infusions and clopidogrel was dosed orally for three days. Ex vivo platelet aggregation induced by 10 μM ADP and clotting times (prothrombin time, PT and activated partial thromboplastin times, aPTT) were measured over the experimental time course (90 min) in all animals.
# This level of platelet inhibition is approximately equivalent to that attained by clopidogrel's effect on human platelets at the therapeutic dose in clinical use (75 mg per day). […] Time to occlusion was measured in animals that had vessel occlusion.
# [3] = system: clotting times (prothrombin time, PT and activated partial thromboplastin times, aPTT); assay: Ex vivo clotting times (PT, aPTT) in the rat thrombosis model; settings: Compound A 0.03 μM, aspirin 3 mg/kg, or both
# Protocol: as §1
# as §1, with “The combination effect of an anticoagulant and anti-platelet agent, aspirin, was investigated in an in vivo model of thrombosis. […] In” for “In”, “aspirin.” for “clopidogrel.”, “aspirin” for “clopidogrel”, “administered as an intravenous bolus approximately 30 min prior to the start of the experiment.” for “dosed orally for three days.”, “μg/mL of collagen” for “μM ADP”
# [4] = system: collagen induced platelet aggregation; assay: Ex vivo platelet aggregation induced by 10 μg/mL of collagen; type: in vivo; settings: Rattus norvegicus
# Protocol: The combination effect of an anticoagulant and anti-platelet agent, aspirin, was investigated in an in vivo model of thrombosis. […] Ex vivo platelet aggregation induced by 10 μg/mL of collagen and clotting times (prothrombin time, PT and activated partial thromboplastin times, aPTT) were measured over the experimental time course (90 min) in all animals.
# [5] = system: Interleukin 8; assay: Ex vivo cytokine release in human whole blood: interleukin 8; type: cell-based; settings: ASA treated donors, no Compound A (Control = 100.0)
# Protocol: An ex vivo assay system of human cytokine release was used to test whether inhibition of factor Xa should augment the effect of reduction of inflammation elicited by standard anti-inflammatory drugs, such as aspirin.
# At the end of the activation period, blood samples were centrifuged at 13,000 rpm (15,000 g) for 5 min in an Eppendorf 5415G centrifuge. Plasma was removed, treated with protease inhibitor cocktail (Roche) and stored frozen at −80° C. Cytokines released from the blood cells were quantitated in a Multiplexed Biomarker Immunoassay for Luminex Instrumentation (Millipore USA).
# [6] = system: thrombin generation; assay: Thrombin generation assay in platelet rich plasma (PRP); type: biochemical, human; settings: ASA donors (aspirin for at least three days), 0 nM Compound A; normalized to Non-ASA at 0 nM
# Protocol: PRP and PPP were prepared by spinning the anticoagulated blood at ˜100×g or 1000×g for 20 minutes, respectively, at room temperature. Platelet counts in PRP were adjusted with homologous PPP to about 200,000 platelets/μL. For thrombin generation in 100 μL reaction mixture, 75 μL PRP was first mixed with CaCl2, convulxin, and Z-Gly-Gly-Arg-aminomethylcoumarin (Z-GGR-AMC, a thrombin fluorogenic substrate) for 3 minutes at 37° C., followed by adding tissue factor (Innovin, Dade Behring) to initiate the generation of thrombin. A typical reaction mixture contained 15 mM Ca^2+, 0.1 μg/mL convulxin, 100 μM Z-GGR-AMC, and 0.1 nM TF (tissue factor) (Innovin). Thrombin formation was monitored continuously at 37° C. by a fluorometric plate reader (Molecular Devices) measuring the relative fluorescence units (RFU). Inhibitors were pre-incubated with plasma for 20 minutes at room temperature before adding CaCl2 and convulxin.
# Non-ASA represents result from donors free of aspirin. ASA represents results from donors taken aspirin for at least three days. % Inhibition was calculated by normalization of mean RFU (n=5) to Non-ASA at 0 nM Compound A.
# [7] = system: pooled human plasma; assay: Ex vivo clotting assays (aPTT) in pooled human plasma; type: biochemical; settings: 0.5 U/mL enoxaparin
# [8] = system: venous thromboembolism (VTE); assay: Prospective randomized trial for prevention of venous thromboembolic events after total knee replacement; settings: Enoxaparin 30 mg bid subcutaneous, 10-14 days, n = 41
# Description: Safety endpoints included the incidence of major and clinically significant nonmajor bleeds through the day after venography. All efficacy and bleeding endpoints were adjudicated by a blinded, independent central adjudication committee.
# [9] = system: human whole blood; assay: Real time perfusion chamber: whole blood perfused over collagen and tissue factor coated surface; type: cell-based; settings: 2.4 μM eptifibatide alone (0 nM Compound A), shear rate 300 s^−1, five donors
# Protocol: After the perfusion, the thrombotic activity was quantified by measurement of labeled fibrin produced as a result of fibrinogen cleavage during the activation of platelets and the blood coagulation system. For this series of experiments in five healthy human volunteers, blood was obtained by venipuncture and treated with 2.4 μM eptifibatide. The dose of eptifibatide corresponds to the plasma concentration attained by therapeutic concentrations of the GPIIb/IIIa inhibitor.
# [10] = system: systolic and diastolic blood pressure; assay: Telemetry blood pressure in conscious beagle dogs, three way crossover; type: in vivo
# Protocol: The study design was a three way crossover with one week between doses to ensure complete elimination of residual agents from the dogs' circulatory system. […] Data acquisition and analysis was performed using LDS Life Science Suite Ponemah P3 plus V 4.20 software with results reported as 10 minute averages for each animal.
# AUC was derived from the systolic and diastolic baseline. […] Negative values represent a decrease in blood pressure relative to the baseline value.
# [11] = Dog # 1, oral, Compound A 3 mg/kg, verapamil 10 mg/kg
# [12] = Dog # 2, oral, Compound A 3 mg/kg, verapamil 10 mg/kg
# [13] = Dog # 3, oral, Compound A 3 mg/kg, verapamil 10 mg/kg
# [14] = following verapamil or placebo administration ([…]), relative to baseline
# [15] = three dogs, oral, Compound A 3 mg/kg, verapamil 10 mg/kg
compound,measurement,setting,value
"COC(=O)[C@H](c1ccccc1Cl)N1CCc2sccc2C1 [Clopidogrel, reference compound]",% Animals that did not occlude,"[1]; clopidogrel 0.01 mg/kg (sub-therapeutic dose), oral",10%
same,inhibition of rat thrombosis (animals that did not occlude),"[1]; clopidogrel 1 mg/kg, dosed orally for three days",89%
same,inhibition at 1 mg/kg,[2],46%
"CC(=O)Oc1ccccc1C(=O)O [aspirin, acetylsalicylic acid, reference compound]",% DNO (inhibition of rat thrombosis),"[1]; Compound A 0.03 μM iv infusion, aspirin 3 mg/kg iv bolus, or both",30%
same,animals that did not occlude,[1]; aspirin 1.0 mg/kg iv bolus,10%
same,inhibition of rat thrombosis (animals that did not occlude),[1]; aspirin 10 mg/kg iv bolus,33.3%
same,TTO (Time to occlusion),"[1]; average for animals that occluded, Compound A 0.03 μM, aspirin 3 mg/kg, or both",31.61 ± 10.91 min
same,DNO (did not occlude),"[1]; number of 10 animals, Compound A 0.03 μM iv infusion, aspirin 3 mg/kg iv bolus, or both",3
same,APTT Ratio,[3],1.02
same,PT ratio,[3],1.01
same,inhibition at 1 mg/kg,[4]; aspirin 1.0 mg/kg iv bolus,< 2%
same,inhibition at 3 mg/kg,"[4]; aspirin 3 mg/kg iv bolus, read-out: inhibition of collagen induced platelet aggregation in platelet rich plasma",35%
same,inhibition at 10 mg/kg,[4]; aspirin 10 mg/kg iv bolus,77%
same,Percent Release of IL8,[5],66.7%
same,% Inhibition of thrombin generation,[6],21.5%
Enoxaparin [reference compound],activated partial thromboplastin time (aPTT),[7],55 s
same,VTE %,[8],10%
"N=C(N)NCCCC[C@@H]1NC(=O)CCSSC[C@@H](C(N)=O)NC(=O)[C@@H]2CCCN2C(=O)[C@H](Cc2c[nH]c3ccccc23)NC(=O)[C@H](CC(=O)O)NC(=O)CNC1=O [eptifibatide, reference compound] ([Mpa][hArg]GDWPC-NH2; disulfide 1-7)",Mean Fluorescence,[9],118.0
"COc1ccc(CCN(C)CCCC(C#N)(c2ccc(OC)c(OC)c2)C(C)C)cc1OC (stereo not drawn) [Verapamil, reference compound]",Lowest Diastolic Blood Pressure Post-Dosing,[10]; [11],65.11 mmHg
same,Lowest Systolic Blood Pressure Post-Dosing,[10]; [11],137.18 mmHg
same,Lowest Diastolic Blood Pressure Post-Dosing,[10]; [12],62.47 mmHg
same,Lowest Systolic Blood Pressure Post-Dosing,[10]; [12],111.90 mmHg
same,Lowest Diastolic Blood Pressure Post-Dosing,[10]; [13],51.94 mmHg
same,Lowest Systolic Blood Pressure Post-Dosing,[10]; [13],95.52 mmHg
same,decrease of diastolic blood pressure,"[10]; Verapamil 10 mg/kg as a single agent, within one hour of oral administration",33%
same,"Mean Area Under the Curve for Diastolic Pressure (AUCP), Mean ± S.D.",[10]; [14],−3077.8 ± 1845.51 mmHg * min.
same,"Mean Area Under the Curve for Systolic Pressure (AUCP), Mean ± S.D.",[10]; [14],−1133.6 ± 1134.7 mmHg * min.
same,"Mean Area Under the Curve for Diastolic Pressure (AUCP), Mean ± S.D.","[10]; following verapamil or placebo administration ([…]), relative to baseline, listed as verapamil",−3079±1846 mmHg * min.
same,"Lowest Diastolic Blood Pressure Post-Dosing, Mean ± S.D.",[10]; [15],59.84 ± 6.97^1 mmHg
same,"Lowest Systolic Blood Pressure Post-Dosing, Mean ± S.D.",[10]; [15],114.87 ± 20.99 mmHg
